From ChEMBL document CHEMBL4373740, “Synthesis and biological evaluation of new MET inhibitors with 1,6-naphthyridinone scaffold” (Eur J Med Chem, 2020)

Assays:
[1] = target: Ribosomal protein S6 kinase alpha-5 (Homo sapiens) (UniProt O75582); experiment: (§1) Inhibition of recombinant full length human GST-tagged RPS6KA5 expressed in baculovirus expression system at 1 uM using biotin as substrate preincubated for 5 mins followed by substrate addition and measured after 30 to 60 mins in presence of ATP by HTRF assay relative to control
[2] = target: High affinity nerve growth factor receptor (Homo sapiens, UniProt P04629); experiment: as §1, with “recombinant” for “recombinant full length”, “His-tagged TRKA catalytic domain (441 to 796 residues)” for “GST-tagged RPS6KA5”
[3] = target: Tyrosine-protein kinase receptor TYRO3 (Homo sapiens, UniProt Q06418); experiment: (§2) Inhibition of recombinant human GST-tagged RSE catalytic domain (451 to 890 residues) expressed in baculovirus expression system using biotin as substrate preincubated for 5 mins followed by substrate addition and measured after 30 to 60 mins in presence of ATP by HTRF assay
[4] = target: Inhibitor of nuclear factor kappa-B kinase subunit beta (Homo sapiens) (UniProt O14920); experiment: Inhibition of recombinant full length human GST-tagged IKBKB expressed in baculovirus expression system at 1 uM using biotin as substrate preincubated for 5 mins followed by substrate addition and measured after 30 to 60 mins in presence of ATP by HTRF assay relative to control
[5] = target: Tyrosine-protein kinase receptor TYRO3 (Homo sapiens) (UniProt Q06418); experiment: as §2, with “system at 1 uM” for “system”, “assay relative to control” for “assay”
[6] = target: Macrophage-stimulating protein receptor (Homo sapiens, UniProt Q04912); experiment: (§3) Inhibition of recombinant human GST-tagged RON expressed in baculovirus system at 1 uM using biotin as substrate preincubated for 5 mins followed by substrate addition and measured after 30 to 60 mins in presence of ATP by HTRF assay relative to control
[7] = target: T1, BDNF/NT-3 growth factors receptor (Homo sapiens, UniProt Q16620); experiment: as §3, with “His-tagged TRKB catalytic domain (526 to 838 residues)” for “GST-tagged RON”, “baculovirus expression” for “baculovirus”
[8] = target: Dual specificity tyrosine-phosphorylation-regulated kinase 4 (Homo sapiens) (UniProt Q9NR20); experiment: Inhibition of recombinant human GST-tagged DYRK4 expressed in baculovirus system at 1 uM using biotin as substrate preincubated for 5 mins followed by substrate addition and measured after 30 to 60 mins in presence of ATP by HTRF assay relative to control
[9] = organism: Homo sapiens; experiment: Selectivity index, ratio of IC50 for purified recombinant VEGFR2 kinase domain (unknown origin) to IC50 for purified recombinant MET kinase domain (unknown origin)
[10] = target: Tyrosine-protein kinase CSK (Homo sapiens) (UniProt P41240); experiment: Inhibition of recombinant full length human His-tagged CSK at 1 uM using biotin as substrate preincubated for 5 mins followed by substrate addition and measured after 30 to 60 mins in presence of ATP by HTRF assay relative to control
[11] = target: cAMP-dependent protein kinase catalytic subunit alpha (Homo sapiens) (UniProt P17612); experiment: Inhibition of recombinant full length human His-tagged PRKACA expressed in Escherichia coli at 1 uM using biotin as substrate preincubated for 5 mins followed by substrate addition and measured after 30 to 60 mins in presence of ATP by HTRF assay relative to control
[12] = Half life in Sprague-Dawley rat at 1.0 mg/kg, iv measured for 5 min to 72 hrs by LC-MS/MS analysis; assay type: ADME, organism-based; conditions: in vivo
[13] = target: Vascular endothelial growth factor receptor 1 (Homo sapiens) (UniProt P17948); experiment: as §3, with “FLT1 catalytic domain (781 to 1338 residues)” for “RON”, “baculovirus expression” for “baculovirus”
[14] = Volume of distribution in Sprague-Dawley rat at 1.0 mg/kg, iv measured for 5 min to 72 hrs by LC-MS/MS analysis; assay type: ADME, organism-based; conditions: in vivo
[15] = target: Serine/threonine-protein kinase PLK1 (Homo sapiens) (UniProt P53350); experiment: Inhibition of recombinant full length human His-tagged PLK1 expressed in baculovirus expression system at 1 uM using biotin as substrate preincubated for 5 mins followed by substrate addition and measured after 30 to 60 mins in presence of ATP by HTRF assay relative to control
[16] = Oral bioavailability in Sprague-Dawley rat at 5.0 mg/kg, ig measured for 15 min to 72 hrs by LC-MS/MS analysis; assay type: ADME, organism-based; conditions: in vivo
[17] = target: Cyclin-dependent kinase 5/CDK5 activator 1 (Homo sapiens) (UniProt Q00535+Q15078); experiment: Inhibition of recombinant full length human GST/His-tagged CDK5/p25 expressed in baculovirus expression system at 1 uM using biotin as substrate preincubated for 5 mins followed by substrate addition and measured after 30 to 60 mins in presence of ATP by HTRF assay relative to control
[18] = target: Aurora kinase A (Homo sapiens) (UniProt O14965); experiment: Inhibition of recombinant full length human His-tagged Aurora A expressed in baculovirus expression system at 1 uM using biotin as substrate preincubated for 5 mins followed by substrate addition and measured after 30 to 60 mins in presence of ATP by HTRF assay relative to control
[19] = target: Tyrosine-protein kinase receptor UFO (Homo sapiens) (UniProt P30530); experiment: as §1, with “human N-terminal” for “human”, “AXL (473 to end residues)” for “RPS6KA5”, “infected Sf21 insect cells” for “expression system”
[20] = target: Serine/threonine-protein kinase B-raf (Homo sapiens) (UniProt P15056); experiment: Inhibition of recombinant full length human GST-tagged BRAF expressed in baculovirus expression system at 1 uM using biotin as substrate preincubated for 5 mins followed by substrate addition and measured after 30 to 60 mins in presence of ATP by HTRF assay relative to control
[21] = target: ALK tyrosine kinase receptor (Homo sapiens) (UniProt Q9UM73); experiment: Inhibition of human GST-tagged ALK cytoplasmic domain (1060 to end residues) expressed in sf9 cells at 1 uM using biotin as substrate preincubated for 5 mins followed by substrate addition and measured after 30 to 60 mins in presence of ATP by HTRF assay relative to control
[22] = Volume of distribution in Sprague-Dawley rat at 5.0 mg/kg, ig measured for 15 min to 72 hrs by LC-MS/MS analysis; assay type: ADME, organism-based; conditions: in vivo, po
[23] = target: T1, BDNF/NT-3 growth factors receptor; experiment: Inhibition of recombinant human His-tagged TRKB catalytic domain (526 to 838 residues) expressed in baculovirus expression system using biotin as substrate preincubated for 5 mins followed by substrate addition and measured after 30 to 60 mins in presence of ATP by HTRF assay
[24] = target: Tyrosine-protein kinase BTK (Homo sapiens) (UniProt Q06187); experiment: Inhibition of recombinant full length human His-tagged BTK expressed in baculovirus expression system at 1 uM using biotin as substrate preincubated for 5 mins followed by substrate addition and measured after 30 to 60 mins in presence of ATP by HTRF assay relative to control
Chain of Tyrosine-protein kinase BTK (Homo sapiens) (Q06187 whole entry): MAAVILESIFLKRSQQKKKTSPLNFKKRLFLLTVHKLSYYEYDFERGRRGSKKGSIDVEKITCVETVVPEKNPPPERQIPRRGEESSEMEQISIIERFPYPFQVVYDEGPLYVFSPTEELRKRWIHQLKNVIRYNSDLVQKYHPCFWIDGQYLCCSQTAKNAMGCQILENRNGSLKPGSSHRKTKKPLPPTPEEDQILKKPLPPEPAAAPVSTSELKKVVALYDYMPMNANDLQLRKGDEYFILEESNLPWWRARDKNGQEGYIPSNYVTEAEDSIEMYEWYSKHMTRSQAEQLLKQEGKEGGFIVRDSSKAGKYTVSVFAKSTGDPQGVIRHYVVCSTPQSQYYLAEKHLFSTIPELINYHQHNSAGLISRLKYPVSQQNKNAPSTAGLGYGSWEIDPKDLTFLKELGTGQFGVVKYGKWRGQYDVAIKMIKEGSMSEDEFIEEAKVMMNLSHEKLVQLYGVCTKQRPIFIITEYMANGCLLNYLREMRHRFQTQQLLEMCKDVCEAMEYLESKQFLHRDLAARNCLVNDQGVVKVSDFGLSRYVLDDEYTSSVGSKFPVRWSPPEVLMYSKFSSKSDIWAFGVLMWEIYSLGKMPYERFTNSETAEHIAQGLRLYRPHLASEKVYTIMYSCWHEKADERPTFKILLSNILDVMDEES

Chain of Dual specificity tyrosine-phosphorylation-regulated kinase 4 (Homo sapiens) (Q9NR20 whole entry, the tested form may be a part): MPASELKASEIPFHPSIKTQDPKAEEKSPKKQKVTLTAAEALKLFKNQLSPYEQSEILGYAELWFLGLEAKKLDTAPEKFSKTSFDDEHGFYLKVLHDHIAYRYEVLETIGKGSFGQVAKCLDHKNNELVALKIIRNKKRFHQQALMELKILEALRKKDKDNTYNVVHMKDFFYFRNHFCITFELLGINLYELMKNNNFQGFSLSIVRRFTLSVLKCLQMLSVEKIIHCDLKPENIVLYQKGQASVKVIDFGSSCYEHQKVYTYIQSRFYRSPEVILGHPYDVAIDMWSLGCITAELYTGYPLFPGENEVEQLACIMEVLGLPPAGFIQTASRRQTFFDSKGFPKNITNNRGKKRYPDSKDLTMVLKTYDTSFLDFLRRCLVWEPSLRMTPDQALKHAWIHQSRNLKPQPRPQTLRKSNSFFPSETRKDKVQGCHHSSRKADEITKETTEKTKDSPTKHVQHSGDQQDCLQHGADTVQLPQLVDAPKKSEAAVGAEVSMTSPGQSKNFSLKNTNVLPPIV
Chain of Serine/threonine-protein kinase B-raf (Homo sapiens) (P15056 whole entry, the tested form may be a part): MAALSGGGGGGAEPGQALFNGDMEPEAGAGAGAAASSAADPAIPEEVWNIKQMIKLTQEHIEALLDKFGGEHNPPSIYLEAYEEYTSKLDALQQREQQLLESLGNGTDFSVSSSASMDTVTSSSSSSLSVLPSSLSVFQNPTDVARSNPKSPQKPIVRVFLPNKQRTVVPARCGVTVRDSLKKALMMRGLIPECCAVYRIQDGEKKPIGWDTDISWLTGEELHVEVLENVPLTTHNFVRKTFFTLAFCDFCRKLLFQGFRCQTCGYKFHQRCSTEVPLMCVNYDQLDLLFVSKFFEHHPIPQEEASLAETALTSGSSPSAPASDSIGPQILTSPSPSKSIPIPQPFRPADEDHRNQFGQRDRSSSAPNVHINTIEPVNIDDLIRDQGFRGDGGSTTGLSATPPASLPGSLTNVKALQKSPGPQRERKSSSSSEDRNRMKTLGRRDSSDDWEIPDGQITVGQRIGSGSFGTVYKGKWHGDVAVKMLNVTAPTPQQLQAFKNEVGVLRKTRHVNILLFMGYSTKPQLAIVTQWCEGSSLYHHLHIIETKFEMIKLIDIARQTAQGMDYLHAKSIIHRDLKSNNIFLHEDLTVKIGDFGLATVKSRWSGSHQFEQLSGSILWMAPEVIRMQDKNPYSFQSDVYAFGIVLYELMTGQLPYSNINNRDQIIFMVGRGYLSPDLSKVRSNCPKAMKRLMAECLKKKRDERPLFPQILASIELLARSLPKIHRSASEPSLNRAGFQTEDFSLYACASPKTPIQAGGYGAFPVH
Chain of Inhibitor of nuclear factor kappa-B kinase subunit beta (Homo sapiens) (O14920 whole entry): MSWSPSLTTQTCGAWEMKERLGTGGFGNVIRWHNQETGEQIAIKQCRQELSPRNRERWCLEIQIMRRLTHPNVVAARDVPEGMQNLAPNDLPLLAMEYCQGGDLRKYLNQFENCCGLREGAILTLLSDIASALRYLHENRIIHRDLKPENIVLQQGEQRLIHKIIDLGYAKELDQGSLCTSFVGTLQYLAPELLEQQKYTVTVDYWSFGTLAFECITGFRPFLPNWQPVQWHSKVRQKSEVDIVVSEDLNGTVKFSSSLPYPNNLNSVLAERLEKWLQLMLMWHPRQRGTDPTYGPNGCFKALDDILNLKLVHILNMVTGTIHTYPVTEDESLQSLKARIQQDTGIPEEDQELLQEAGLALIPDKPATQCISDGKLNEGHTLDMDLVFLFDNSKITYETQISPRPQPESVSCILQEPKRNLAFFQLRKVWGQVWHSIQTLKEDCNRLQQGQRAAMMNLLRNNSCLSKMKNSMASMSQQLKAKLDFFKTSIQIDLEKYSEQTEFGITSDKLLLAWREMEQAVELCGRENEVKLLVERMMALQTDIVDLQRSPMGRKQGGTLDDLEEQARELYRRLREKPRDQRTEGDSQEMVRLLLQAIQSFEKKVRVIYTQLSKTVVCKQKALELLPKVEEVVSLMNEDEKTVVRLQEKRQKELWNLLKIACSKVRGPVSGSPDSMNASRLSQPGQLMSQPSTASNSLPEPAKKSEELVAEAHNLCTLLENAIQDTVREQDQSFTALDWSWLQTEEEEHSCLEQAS
Chain of Vascular endothelial growth factor receptor 1 (Homo sapiens) (P17948 whole entry, the tested form may be a part): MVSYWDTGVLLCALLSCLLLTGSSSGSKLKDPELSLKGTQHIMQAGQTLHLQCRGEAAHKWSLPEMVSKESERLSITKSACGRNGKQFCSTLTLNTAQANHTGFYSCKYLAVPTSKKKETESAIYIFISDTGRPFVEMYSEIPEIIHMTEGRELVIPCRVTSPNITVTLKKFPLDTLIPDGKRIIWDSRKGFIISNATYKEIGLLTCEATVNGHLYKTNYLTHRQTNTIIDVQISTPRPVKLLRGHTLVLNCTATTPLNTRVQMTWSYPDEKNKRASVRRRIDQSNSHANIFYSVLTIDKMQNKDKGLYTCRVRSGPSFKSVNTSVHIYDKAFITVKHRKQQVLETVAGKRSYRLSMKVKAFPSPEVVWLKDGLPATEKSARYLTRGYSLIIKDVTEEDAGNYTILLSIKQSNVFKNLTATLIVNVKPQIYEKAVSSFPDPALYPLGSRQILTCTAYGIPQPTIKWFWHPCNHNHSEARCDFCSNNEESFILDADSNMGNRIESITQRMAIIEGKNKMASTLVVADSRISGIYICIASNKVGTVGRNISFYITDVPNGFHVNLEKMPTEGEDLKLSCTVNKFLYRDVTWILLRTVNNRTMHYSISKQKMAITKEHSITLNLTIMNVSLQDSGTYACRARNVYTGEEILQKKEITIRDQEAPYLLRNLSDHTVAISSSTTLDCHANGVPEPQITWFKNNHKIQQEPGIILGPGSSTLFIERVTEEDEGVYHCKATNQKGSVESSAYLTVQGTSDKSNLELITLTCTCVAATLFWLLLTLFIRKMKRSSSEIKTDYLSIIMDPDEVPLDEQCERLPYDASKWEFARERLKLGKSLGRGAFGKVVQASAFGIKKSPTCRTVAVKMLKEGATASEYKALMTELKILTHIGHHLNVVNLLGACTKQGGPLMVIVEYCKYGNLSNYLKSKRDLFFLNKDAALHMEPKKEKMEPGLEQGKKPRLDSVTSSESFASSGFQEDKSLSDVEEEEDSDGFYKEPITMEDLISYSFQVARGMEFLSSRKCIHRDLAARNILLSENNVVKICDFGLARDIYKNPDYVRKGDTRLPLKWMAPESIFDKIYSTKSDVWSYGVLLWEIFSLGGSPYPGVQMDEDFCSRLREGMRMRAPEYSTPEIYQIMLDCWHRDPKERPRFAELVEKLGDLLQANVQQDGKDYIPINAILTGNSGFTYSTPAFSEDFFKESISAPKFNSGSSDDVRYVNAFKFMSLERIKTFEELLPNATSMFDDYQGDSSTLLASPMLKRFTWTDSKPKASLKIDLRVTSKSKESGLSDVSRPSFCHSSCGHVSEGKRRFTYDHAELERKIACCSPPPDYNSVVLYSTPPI
Chain of Serine/threonine-protein kinase PLK1 (Homo sapiens) (P53350 whole entry): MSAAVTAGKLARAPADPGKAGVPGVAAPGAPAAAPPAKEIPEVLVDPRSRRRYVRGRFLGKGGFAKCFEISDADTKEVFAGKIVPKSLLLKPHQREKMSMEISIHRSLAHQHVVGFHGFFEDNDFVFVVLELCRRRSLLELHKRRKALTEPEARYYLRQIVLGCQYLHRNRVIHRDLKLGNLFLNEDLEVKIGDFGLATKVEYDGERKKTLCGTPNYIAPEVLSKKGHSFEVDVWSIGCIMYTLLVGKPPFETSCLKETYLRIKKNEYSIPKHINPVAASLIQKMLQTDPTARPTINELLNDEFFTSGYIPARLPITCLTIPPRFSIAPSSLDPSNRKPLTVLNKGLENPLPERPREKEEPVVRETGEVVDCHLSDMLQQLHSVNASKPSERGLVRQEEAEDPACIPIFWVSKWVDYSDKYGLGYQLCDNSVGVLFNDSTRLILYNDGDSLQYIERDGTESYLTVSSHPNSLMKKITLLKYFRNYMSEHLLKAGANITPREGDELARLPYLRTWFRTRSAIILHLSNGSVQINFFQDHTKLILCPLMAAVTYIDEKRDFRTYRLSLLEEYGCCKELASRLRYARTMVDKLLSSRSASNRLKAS
Chain of Aurora kinase A (Homo sapiens) (O14965 whole entry): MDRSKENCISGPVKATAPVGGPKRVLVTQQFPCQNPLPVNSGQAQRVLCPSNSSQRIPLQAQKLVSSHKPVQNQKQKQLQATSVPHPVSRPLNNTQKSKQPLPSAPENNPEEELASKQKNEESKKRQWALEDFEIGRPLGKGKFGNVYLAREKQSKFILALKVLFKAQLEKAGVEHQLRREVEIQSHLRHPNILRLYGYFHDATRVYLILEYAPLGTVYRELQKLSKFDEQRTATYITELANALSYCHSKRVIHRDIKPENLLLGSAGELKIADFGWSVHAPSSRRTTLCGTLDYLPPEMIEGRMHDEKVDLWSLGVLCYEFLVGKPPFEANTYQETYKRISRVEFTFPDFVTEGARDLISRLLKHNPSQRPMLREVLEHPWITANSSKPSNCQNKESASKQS

inhibition [1]: < 50% | inhibition [2]: > 80% | IC50 [3]: 41.1 nM | inhibition [4]: < 50% | inhibition [5]: > 80% | inhibition [6]: 50 to 79% | inhibition [7]: > 80% | inhibition [8]: < 50% | Ratio IC50 [9]: 3230 | inhibition [10]: < 50% | inhibition [11]: < 50% | half-life [12]: 25.4 h | inhibition [13]: < 50% | Vd [14]: 0.4 L/kg | inhibition [15]: < 50% | bioavailability [16]: 58% | inhibition [17]: < 50% | inhibition [18]: < 50% | inhibition [19]: > 80% | inhibition [20]: < 50% | inhibition [21]: < 50% | Vd [22]: 0.6 L/kg | IC50 [23]: 58.8 nM | inhibition [24]: < 50%
Compound: Cn1cc(-c2ccc(F)cc2)c(=O)c2c(Nc3ccc(Oc4ccnc(NC(=O)C5CC5)c4)c(F)c3)nccc21
